Measured values: patent publication US6525059B1, “Substituted pyrazoles as p38 kinase inhibitors” (G. D. Searle & Company, priority 1998, dated 2003)
Read-outs that look alike come from different tables or passages of the source.

Legend:
[1] = biological target: T1, human GST-p38 kinase alpha (Homo sapiens, UniProt Q16539); test: p38 kinase in vitro assay, second format, phosphorylation of EGFRP with 33P-ATP; type: biochemical; conditions: Table 10, 10% DMSO; @ 1.0 hour; read-out: p38α Kinase Assay IC50
T1 construct: The coding region of the human p38a cDNA was obtained by PCR-amplification from RNA isolated from the human monocyte cell line THP.1; made in house; host or cells: E. coli DH10B
T1 sequence (Q16539 whole entry): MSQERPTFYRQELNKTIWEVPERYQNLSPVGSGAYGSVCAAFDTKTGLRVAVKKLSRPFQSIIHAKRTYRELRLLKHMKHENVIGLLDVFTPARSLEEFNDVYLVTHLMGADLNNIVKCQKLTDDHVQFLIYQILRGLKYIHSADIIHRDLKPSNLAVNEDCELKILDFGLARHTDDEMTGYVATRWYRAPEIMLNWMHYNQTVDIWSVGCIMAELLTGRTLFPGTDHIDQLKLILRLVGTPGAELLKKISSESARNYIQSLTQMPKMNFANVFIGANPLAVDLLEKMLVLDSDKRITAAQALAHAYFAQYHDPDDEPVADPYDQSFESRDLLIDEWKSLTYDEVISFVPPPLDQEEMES
Method in brief: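 Activated human GST-p38α (pre-activated with GST-MKK6, 1 h, 30 °C) phosphorylates EGFR 21-mer peptide (200 μM) with 50 μM ATP plus γ-33P-ATP, pH 7.5, 60 min at room temperature. Unreacted ATP removed by AG 1×8 resin; supernatant scintillation-counted.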

[2] = test system: human TNF; test: TNF inhibition: human whole blood assay; type: cell-based; conditions: Homo sapiens, Table 10, human whole blood, LPS; read-out: TNF Inhibition-Human Whole Blood Assay
[3] = test system: TNF-α; test: Rat assay: LPS-challenged rats, serum TNF-α by ELISA; type: in vivo; conditions: Rattus norvegicus, po; for inhibition in vivo at 5 mg/kg: Table 10, dose 5.0 mg/kg; for inhibition in vivo at 20 mg/kg: Table 10, dose 20.0 mg/kg; for inhibition in vivo at 3 mg/kg: 3 mpk oral gavage, read-out: Rat LPS Model % inhib @ dose @ predose time
[4] = test system: TNF-α; test: LPS stimulation of TNF production by U937 cells; type: cell-based, human; conditions: LPS-stimulated human U937 cells, read-out: U937 Cell IC50
Method in brief: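 PMA-differentiated human U937 cells (20 ng/ml PMA, 24 h, then 24-48 h rest) at 2 million cells/ml, 0.1% DMSO final, stimulated with E. coli LPS (100 ng/ml final) for 4 h at 37° C. TNF-α in medium measured by ELISA; IC50 in μM.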

[5] = test system: TNF alpha; test: Mouse model of LPS-induced TNF alpha production; type: in vivo; conditions: for inhibition in vivo at 100 mg/kg / inhibition in vivo at 30 mg/kg: Mus musculus, -6h before LPS, read-out: Mouse LPS Model % TNF inhib @ dose @ predose time; for inhibition in vivo at 100 mg/kg: 100 mpk oral gavage; for inhibition in vivo at 30 mg/kg / Mouse LPS Model % TNF inhib @ dose @ predose time: 30 mpk oral gavage
Protocol: TNF alpha was induced in 10-12 week old BALB/c female mice by tail vein injection with 100 ng lipopolysaccharide (from S. Typhosa) in 0.2 ml saline. One hour later mice were bled from the retroorbital sinus and TNF concentrations in serum from clotted blood were quantified by ELISA.
Efficacy was determined at each time point as percent inhibition of serum TNF levels relative to LPS injected mice that received vehicle only
wherein in the dose is milligram per kilogram (mpk) administered by oral gavage and the predose time indicates the number of hours before LPS challenge when the compound is administered.

[6] = biological target: T2, human p38 kinase alpha (Homo sapiens, UniProt Q16539); test: p38 kinase in vitro assay, phosphorylation of biotinylated PHAS-I with gamma 32P-ATP; type: biochemical; conditions: read-out: P38 alpha kinase IC50
T2 construct: The coding region of the human p38a cDNA was obtained by PCR-amplification from RNA isolated from the human monocyte cell line THP.1; GST (N); made in house; host or cells: E. coli DH10B
T2 sequence (Q16539 whole entry): as above
Method in brief: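 Radiometric filter-capture read-out: streptavidin plates trap biotin-PHAS-I labelled by activated (MKK6) human p38α from γ-32P-ATP. Buffer 25 mM HEPES pH 7.5, 10 mM magnesium acetate, 50 μM cold ATP; reactions 1 h or overnight at 30 °C; inhibitors 10-fold dilutions 100 to 0.001 μM, triplicates, 1% DMSO.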

[7] = read-out: Rat LPS Assay % Inhibition
[8] = Homo sapiens, U-937, TNF production

| IC50 [6] [nM] | SMILES | IC50 [1] [nM] | IC50 [2] [nM] | inhibition in vivo at 20 mg/kg [3] [%] | melting point [°C] | IC50 [4, 8] [nM] | inhibition in vivo at 30 mg/kg [5] [%] | further results |
| --- | --- | --- | --- | --- | --- | --- | --- | --- |
| – | Clc1ccc(-c2n[nH]c(SC3CCNCC3)c2-c2ccncc2)cc1 [Example A-459] | 27 | 260 | 80 | 211.1 to 211.2 | – | – | inhibition in vivo at 1 mg/kg ([3]; Table 10, dose 1.0 mg/kg, read-out: Rat LPS Assay % Inhibition): 0%; inhibition in vivo at 5 mg/kg [3, 7]: 54% |
| – | COCCSc1[nH]nc(-c2ccc(Cl)cc2)c1-c1ccncc1 [Example A-469, 3-(4-chlorophenyl)-5-[(2-methoxyethyl)-thio]-4pyridin-4-yl-pyrazole] | 95 | 7170 | 68 | 189.2 to 190.2 | – | – | inhibition in vivo at 5 mg/kg [3, 7]: 51% |
| – | Clc1ccc(-c2n[nH]c(SCC3OCCO3)c2-c2ccncc2)cc1 [Example A-473] | 170 | 560 | 58 | 197 to 198.2 | – | – | – |
| – | O=C(CSc1[nH]nc(-c2ccc(Cl)cc2)c1-c1ccncc1)N1CCOCC1 [Example A-476] | 1010 | 970 | 35 | 215.4 to 215.5 | – | – | – |
| – | [O-][S+](c1[nH]nc(-c2ccc(Cl)cc2)c1-c1ccncc1)C1CCNCC1 (centres unmarked) [Example A-482] | 1620 | 690 | 15 | 189.1 to 190.8 | – | – | – |
| – | O=C(NCc1[nH]nc(-c2ccc(F)cc2)c1-c1ccncc1)c1c(F)cc(F)cc1F [Example B-0051] | – | – | – | – | 2150 | – | inhibition in vivo at 3 mg/kg ([3]; 4 h, 4h): 79%; inhibition in vivo at 100 mg/kg [5]: 47% |
| 550 | CC(Oc1ccccc1)C(=O)NCc1[nH]nc(-c2ccc(F)cc2)c1-c1ccncc1 (centres unmarked) [Example B-0087] | – | – | – | – | – | 38 | – |
| 3180 | O=C(COc1ccc(Cl)cc1)NCc1[nH]nc(-c2ccc(F)cc2)c1-c1ccncc1 [Example B-0093] | – | – | – | – | 1250 | 30 | – |
| 460 | COc1ccc(S(=O)(=O)NCc2[nH]nc(-c3ccc(F)cc3)c2-c2ccncc2)cc1 [Example B-0117] | – | – | – | – | 1780 | 30 | – |
| 1000 | C[C@@H](NC(=O)c1ccccc1C(F)(F)F)c1[nH]nc(-c2ccc(F)cc2)c1-c1ccncc1 [Example B-0368] | – | – | – | – | 640 | 37 | – |
| 17 | Cc1c(-c2ccncc2)c(-c2ccc(F)cc2)nn1CC(=O)NCCc1ccc(Oc2ccccc2)cc1 [Example B-2286] | – | – | – | – | – | – | IC50 ([4]; TNF production): 780 nM; Mouse LPS Model % TNF inhib @ dose @ predose time ([5]; 1 h before LPS challenge): 25% @ 30 mpk @ -1h |
| – | C#CCNC(=O)Cn1nc(-c2ccc(F)cc2)c(-c2ccncc2)c1C [Example B-2310] | – | – | – | – | – | – | Mouse LPS Model % TNF inhib @ dose @ predose time [5]: 50% @ 30 mpk @ -6h |

| SMILES | IC50 [6] [nM] | IC50 [1] [nM] | IC50 [2] [nM] | inhibition in vivo at 20 mg/kg [3] [%] | melting point [°C] | IC50 [4, 8] [nM] | inhibition in vivo at 30 mg/kg [5] [%] | further results |
| --- | --- | --- | --- | --- | --- | --- | --- | --- |
| O=S(=O)(Cc1ccccc1)NCc1[nH]nc(-c2ccc(F)cc2)c1-c1ccncc1 [Example B-0120] | 8 | – | – | – | – | 210 | – | inhibition in vivo at 3 mg/kg ([3]; -4 h, -4h before LPS): 70%; inhibition in vivo at 100 mg/kg [5]: 77% |
| C[C@@H](NC(=O)c1ccccc1I)c1[nH]nc(-c2ccc(F)cc2)c1-c1ccncc1 [Example B-0354] | 1000 | – | – | – | – | 660 | 51 | inhibition in vivo at 3 mg/kg ([3]; -4 h, -4h before LPS): 54% |
| C[C@@H](NS(=O)(=O)c1ccc(F)cc1)c1[nH]nc(-c2ccc(F)cc2)c1-c1ccncc1 [Example B-0385] | 57 | – | – | – | – | 900 | 30 | inhibition in vivo at 3 mg/kg ([3]; -4 h, -4h before LPS): 0% |
